Test results published in patent US9469650B2, “Melampomagnolide B derivatives” (BOARD OF TRUSTEES OF THE UNIVERSITY OF ARKANSAS, priority 2013, dated 2016).

Legend:
K-562 = test: panel of 60 human tumor cell lines, growth inhibition (Leukemia); details: K-562
UACC-257 = test: panel of 60 human tumor cell lines, growth inhibition (Melanoma); details: UACC-257
SF-268 = test: panel of 60 human tumor cell lines, growth inhibition (CNS Cancer); details: SF-268
SF-295 = test: as above; details: SF-295
SNB-75 = test: as above; details: SNB-75
HCT-116 = test: panel of 60 human tumor cell lines, growth inhibition (Colon Cancer); details: HCT-116
HCT-15 = test: as above; details: HCT-15
HT29 = test: as above; details: HT29
SW-620 = test: as above; details: SW-620

C=C1C(=O)O[C@H]2[C@H]1CC/C(COC(=O)N1CCN(C)CC1)=C\CC[C@@]1(C)O[C@@H]21 [JVM 2-44]
GI50 (K-562): 4.25 µM
TGI (K-562): 2.82E−5
Mean Optical Densities (K-562; Log10 Concentration −4.0): 0.152
Percent Growth (K-562; Log10 Concentration −4.0): −25%
Mean Optical Densities (K-562; Log10 Concentration −5.0): 0.394
Percent Growth (K-562; Log10 Concentration −5.0): 21%
Mean Optical Densities (K-562; Log10 Concentration −6.0): 1.109
Percent Growth (K-562; Log10 Concentration −6.0): 99%
Mean Optical Densities (K-562; Log10 Concentration −7.0): 1.030
Percent Growth (K-562; Log10 Concentration −7.0): 91%
Mean Optical Densities (K-562; Log10 Concentration −8.0): 1.141
Percent Growth (K-562; Log10 Concentration −8.0): 103%
GI50 (UACC-257): 9.93 µM
TGI (UACC-257): 2.32E−5
Mean Optical Densities (UACC-257; Log10 Concentration −4.0): 0.150
Percent Growth (UACC-257; Log10 Concentration −4.0): −86%
Mean Optical Densities (UACC-257; Log10 Concentration −5.0): 1.662
Percent Growth (UACC-257; Log10 Concentration −5.0): 50%
Mean Optical Densities (UACC-257; Log10 Concentration −6.0): 2.046
Percent Growth (UACC-257; Log10 Concentration −6.0): 84%
Mean Optical Densities (UACC-257; Log10 Concentration −7.0): 2.135
Percent Growth (UACC-257; Log10 Concentration −7.0): 92%
Mean Optical Densities (UACC-257; Log10 Concentration −8.0): 2.160
Percent Growth (UACC-257; Log10 Concentration −8.0): 94%
GI50 (SF-268): 13.5 µM
TGI (SF-268): 3.19E−5
Mean Optical Densities (SF-268; Log10 Concentration −4.0): 0.188
Percent Growth (SF-268; Log10 Concentration −4.0): −66%
Mean Optical Densities (SF-268; Log10 Concentration −5.0): 1.432
Percent Growth (SF-268; Log10 Concentration −5.0): 67%
Mean Optical Densities (SF-268; Log10 Concentration −6.0): 1.625
Percent Growth (SF-268; Log10 Concentration −6.0): 97%
Mean Optical Densities (SF-268; Log10 Concentration −7.0): 1.839
Percent Growth (SF-268; Log10 Concentration −7.0): 9B
Mean Optical Densities (SF-268; Log10 Concentration −8.0): 1.843
Percent Growth (SF-268; Log10 Concentration −8.0): 99%
GI50 (SF-295): 70.7 µM
TGI (SF-295): >1.00E−4
Mean Optical Densities (SF-295; Log10 Concentration −4.0): 1.767
Percent Growth (SF-295; Log10 Concentration −4.0): 43%
Mean Optical Densities (SF-295; Log10 Concentration −5.0): 2.724
Percent Growth (SF-295; Log10 Concentration −5.0): 87%
Mean Optical Densities (SF-295; Log10 Concentration −6.0): 2.913
Percent Growth (SF-295; Log10 Concentration −6.0): 96%
Mean Optical Densities (SF-295; Log10 Concentration −7.0): 2.707
Percent Growth (SF-295; Log10 Concentration −7.0): 87%
Mean Optical Densities (SF-295; Log10 Concentration −8.0): 2.920
Percent Growth (SF-295; Log10 Concentration −8.0): 96%
GI50 (SNB-75): 7.65 µM
TGI (SNB-75): 2.40E−5
Mean Optical Densities (SNB-75; Log10 Concentration −4.0): 0.183
Percent Growth (SNB-75; Log10 Concentration −4.0): −76%
Mean Optical Densities (SNB-75; Log10 Concentration −5.0): 1.112
Percent Growth (SNB-75; Log10 Concentration −5.0): 47%
Mean Optical Densities (SNB-75; Log10 Concentration −6.0): 1.330
Percent Growth (SNB-75; Log10 Concentration −6.0): 76%
Mean Optical Densities (SNB-75; Log10 Concentration −7.0): 1.274
Percent Growth (SNB-75; Log10 Concentration −7.0): 68%
Mean Optical Densities (SNB-75; Log10 Concentration −8.0): 1.343
Percent Growth (SNB-75; Log10 Concentration −8.0): 78%
GI50 (HCT-116): 3.79 µM
TGI (HCT-116): 1.43E−5
Mean Optical Densities (HCT-116; Log10 Concentration −4.0): 0.061
Percent Growth (HCT-116; Log10 Concentration −4.0): −80%
Mean Optical Densities (HCT-116; Log10 Concentration −5.0): 0.598
Percent Growth (HCT-116; Log10 Concentration −5.0): 15%
Mean Optical Densities (HCT-116; Log10 Concentration −6.0): 2.231
Percent Growth (HCT-116; Log10 Concentration −6.0): 98%
Mean Optical Densities (HCT-116; Log10 Concentration −7.0): 2.250
Percent Growth (HCT-116; Log10 Concentration −7.0): 99%
Mean Optical Densities (HCT-116; Log10 Concentration −8.0): 2.298
Percent Growth (HCT-116; Log10 Concentration −8.0): 102%
GI50 (HCT-15): 3.01 µM
TGI (HCT-15): 1.42E−5
Mean Optical Densities (HCT-15; Log10 Concentration −4.0): 0.108
Percent Growth (HCT-15; Log10 Concentration −4.0): −71%
Mean Optical Densities (HCT-15; Log10 Concentration −5.0): 0.643
Percent Growth (HCT-15; Log10 Concentration −5.0): 13%
Mean Optical Densities (HCT-15; Log10 Concentration −6.0): 2.210
Percent Growth (HCT-15; Log10 Concentration −6.0): 84%
Mean Optical Densities (HCT-15; Log10 Concentration −7.0): 2.370
Percent Growth (HCT-15; Log10 Concentration −7.0): 92%
Mean Optical Densities (HCT-15; Log10 Concentration −8.0): 2.435
Percent Growth (HCT-15; Log10 Concentration −8.0): 94%
GI50 (HT29): 5.54 µM
TGI (HT29): 1.95E−5
Mean Optical Densities (HT29; Log10 Concentration −4.0): 0.873
Percent Growth (HT29; Log10 Concentration −4.0): −70%
Mean Optical Densities (HT29; Log10 Concentration −5.0): 0.502
Percent Growth (HT29; Log10 Concentration −5.0): 28%
Mean Optical Densities (HT29; Log10 Concentration −6.0): 1.268
Percent Growth (HT29; Log10 Concentration −6.0): 112%
Mean Optical Densities (HT29; Log10 Concentration −7.0): 1.248
Percent Growth (HT29; Log10 Concentration −7.0): 110%
Mean Optical Densities (HT29; Log10 Concentration −8.0): 1.216
Percent Growth (HT29; Log10 Concentration −8.0): 107%
GI50 (SW-620): 3.67 µM
TGI (SW-620): 1.49E−5
Mean Optical Densities (SW-620; Log10 Concentration −4.0): 0.080
Percent Growth (SW-620; Log10 Concentration −4.0): −78%
Mean Optical Densities (SW-620; Log10 Concentration −5.0): 0.753
Percent Growth (SW-620; Log10 Concentration −5.0): 16%
Mean Optical Densities (SW-620; Log10 Concentration −6.0): 2.599
Percent Growth (SW-620; Log10 Concentration −6.0): 94%
Mean Optical Densities (SW-620; Log10 Concentration −7.0): 2.683
Percent Growth (SW-620; Log10 Concentration −7.0): 97%
Mean Optical Densities (SW-620; Log10 Concentration −8.0): 2.698
